In US6653340B1, “Compounds useful in the complement, coagulat and kallikrein pathways and method for their preparation” (BioCryst Pharmaceuticals, Inc., priority 1997, dated 2003):

Experiments:
Assay type in all cases: biochemical
C1s = biological target: T1, C1s (Homo sapiens, UniProt P09871); test: C1s esterolytic inhibition assay (Z-Lys-SBzl substrate); details: Z-Lys-SBzl 1.29 mM, C1s 3 to 13 nM; read-out: Cls (Serine Protease Inhibitory Data, IC50)
T1 sequence (P09871 16-688): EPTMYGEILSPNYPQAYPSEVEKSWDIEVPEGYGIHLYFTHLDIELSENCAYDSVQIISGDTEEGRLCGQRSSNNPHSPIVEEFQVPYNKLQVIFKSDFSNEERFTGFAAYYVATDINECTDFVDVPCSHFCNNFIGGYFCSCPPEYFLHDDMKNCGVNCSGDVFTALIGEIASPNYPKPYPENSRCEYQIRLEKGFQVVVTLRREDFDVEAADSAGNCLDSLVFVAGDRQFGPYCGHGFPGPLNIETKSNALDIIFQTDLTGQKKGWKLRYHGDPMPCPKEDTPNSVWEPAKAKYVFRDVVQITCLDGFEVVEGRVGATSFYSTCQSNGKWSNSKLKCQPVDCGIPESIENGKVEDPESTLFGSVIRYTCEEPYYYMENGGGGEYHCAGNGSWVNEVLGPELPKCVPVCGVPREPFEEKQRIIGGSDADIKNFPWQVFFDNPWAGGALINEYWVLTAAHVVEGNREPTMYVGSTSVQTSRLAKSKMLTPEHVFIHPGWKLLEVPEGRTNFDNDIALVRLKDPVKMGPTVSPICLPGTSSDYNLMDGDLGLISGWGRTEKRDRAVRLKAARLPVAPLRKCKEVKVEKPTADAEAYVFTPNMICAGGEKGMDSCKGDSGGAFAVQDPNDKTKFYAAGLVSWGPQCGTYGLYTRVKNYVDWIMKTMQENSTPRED
Description: (§1) The compounds to be tested were dissolved in a stock solution of DMSO at 10.0 or 100 mM. A portion of this stock solution was added to assay buffer in a final volume of 100 μL containing the enzyme of interest. Controls included buffer alone and enzyme solutions to which DMSO was added. Substrate was added to the reaction wells immediately or after incubation at room temperature. The reaction rates were measured spectrophotometrically by the generation of product at 405 nm for 200 sec. Background absorbance at 690 nm was measured and subtracted from the absorbance at 405 nm for each well.
(§2) The reaction rate for enzyme alone was compared to the rate of enzyme in the presence of inhibitor and the percent inhibition was calculated as shown below:
(§3) Percent Inhibition=[Rate without inhibitor−Rate with inhibitor)/(Rate without inhibitor)]×100
(§4) Compounds in the examples were tested a minimum of three times.
C1s esterolytic activity was assayed using a modification of the technique originally described by Kam using Z-Lys-SBzl, 1.29 mM as substrate and C1s at 3 to 13 nM.

Thrombin = Thrombin (Homo sapiens, UniProt P00734); test: Thrombin inhibition assay (N-Benzoyl-Phe-Val-Arg-p-nitroanilide substrate); details: thrombin 12.5 U/ml, pH 7.5; read-out: Thrombin (Serine Protease Inhibitory Data, IC50)
Description: as §1, §2, §3, §4
(§5) Thrombin was assayed at 12.5 U/ml using 0.37 mM N-Benzoyl-Phe-Val-Arg-p-nitroanilide (Svendsen, L.; Blomback B.; Blomback, M.; Olsson, P. I. Substrate for determination of trypsin, thrombin and thrombin-like enzymes. Folia Haematol. 1972, 98, 446-454.) as the substrate in 100 mM HEPES, 10 mM CaCl2, 10% DMSO, pH 7.5. Factor Xa, 0.5 U/mL, was assayed in 50 mM HEPES, 150 mM NaCl, 10 mM CaCl2, pH 8.0 using Chromozyme X, 0.17 mM, as the substrate. Plasmin (0.004 units/mL), factor XIIa ([…]) and kallikrein (0.02 units/mL were assayed using modifications of the techniques originally described by McRae, et al. (Biochemistry. 1981, 20, 7196-7206). The assays were run in 200 mM triethanolamine, pH 7.8 and 100 mM Tris-HCl, 100 mM EDTA, […] using Z-Lys-SBzl, 0.13 mM and […], 0.16 mM, as substrates, respectively.

Factor Xa = Factor Xa (Homo sapiens, UniProt P00742); test: Factor Xa inhibition assay (Chromozyme X substrate); details: Factor Xa 0.5 U/mL, pH 8.0; read-out: Xa (Serine Protease Inhibitory Data, IC50)
Description: as §1, §2, §3, §4, §5

kallikrein = kallikrein (Homo sapiens, UniProt P03952); test: Kallikrein inhibition assay (thioester substrate); details: kallikrein 0.02 units/mL; read-out: Kallikrein (Serine Protease Inhibitory Data, IC50)
Description: as §1, §2, §3, §4, §5

factor XIIa = biological target: T2, factor XIIa (Homo sapiens, UniProt P00748); test: Factor XIIa inhibition assay (thioester substrate); details: read-out: XIIa (Serine Protease Inhibitory Data, IC50)
T2 sequence (P00748 373-615 limits assumed): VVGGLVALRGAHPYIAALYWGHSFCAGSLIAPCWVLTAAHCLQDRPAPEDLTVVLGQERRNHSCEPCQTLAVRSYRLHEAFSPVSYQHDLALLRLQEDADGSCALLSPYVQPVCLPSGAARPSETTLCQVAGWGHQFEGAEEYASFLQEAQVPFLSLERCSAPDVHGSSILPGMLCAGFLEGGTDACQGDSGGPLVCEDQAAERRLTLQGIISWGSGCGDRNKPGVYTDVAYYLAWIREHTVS
Description: as §1, §2, §3, §4, §5

Plasmin = Plasmin (Homo sapiens, UniProt P00747); test: Plasmin inhibition assay (thioester substrate); details: plasmin 0.004 units/mL; read-out: Plasmin (Serine Protease Inhibitory Data, IC50)
Description: as §1, §2, §3, §4, §5

Factor D = Factor D (Homo sapiens, UniProt P00746); test: Factor D esterolytic inhibition assay (Z-Lys-SBzl substrate); design: Factor D was purified from the urine of a patient with Fanconi syndrome by ion exchange chromatography; from tissue; host or cells: urine of a patient with Fanconi syndrome; details: Z-Lys-SBzl 1.29 mM, pH 7.5, 10% DMSO; read-out: Factor D (Serine Protease Inhibitory Data, IC50)
Source text: A modification of the procedure of Volanakis (Volankis, J. E.; Barnum, S. R.; Kilpatrick, J. M. Purification and properties of human factor D. Methods in Enzymol. 1993, 223, 82-97) for purification of Factor D was utilized as described by Yamauchi (Yamauchi, Y.; Stevens, J. W.; Macon, K. J.; Volanakis, J. E. Recombinant and native zymogen forms of human complement factor D. J. Immunol. 1994, 152, 3645-3653. Briefly, Factor D was purified from the urine of a patient with Fanconi syndrome by ion exchange chromatography using BioRex 70 and two rounds of ion-exchange chromatography in a Pharmacia FPLC system using a HR5/5 Mono S column.
as §1, §2, §3, §4
An established esterolytic assay for the measurement of Factor D activity and inhibition of Factor D activity was used (Kam, C. M.; McRae, B. J.; Harper, J. W.; Niemann, M. A.; Volanakis, J. E.; Powers, J. C. Human complement proteins D, C2, and B Active site mapping with peptide thioester substrates. J Biol. Chem. 1987, 262, 3444-3451). […] Hydrolysis of this compound by Factor D liberated a free sulfhydryl group which is then reacted with 5,5′-dithiobis(2nitrobenzoic acid) producing an intense yellow color (Habeeb, A. F. S. A. Reaction of protein sulfhydryl groups with Ellman's Reagent. Methods in Enzymol. 1976, 25, 457-464.). The assays were performed in 96 well microtiter plates and rates of hydrolysis were monitored at 405 nm in a Anthos Labtec HT2 plate reader. Hydrolysis rates were reported as change in mOD/min. The assay was conducted in 100 mM HEPES, 500 mM NaCl, pH 7.5 containing 10% DMSO in a final volume of 200 μL per well.

Chain of Factor D (P00746 26-253): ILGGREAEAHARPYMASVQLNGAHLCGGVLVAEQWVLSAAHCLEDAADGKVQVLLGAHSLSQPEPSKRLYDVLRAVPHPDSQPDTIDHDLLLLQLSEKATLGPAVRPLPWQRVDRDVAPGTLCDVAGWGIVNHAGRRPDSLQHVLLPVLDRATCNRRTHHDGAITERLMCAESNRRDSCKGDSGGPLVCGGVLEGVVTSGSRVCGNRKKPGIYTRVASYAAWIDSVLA
Chain of kallikrein (P03952 whole entry): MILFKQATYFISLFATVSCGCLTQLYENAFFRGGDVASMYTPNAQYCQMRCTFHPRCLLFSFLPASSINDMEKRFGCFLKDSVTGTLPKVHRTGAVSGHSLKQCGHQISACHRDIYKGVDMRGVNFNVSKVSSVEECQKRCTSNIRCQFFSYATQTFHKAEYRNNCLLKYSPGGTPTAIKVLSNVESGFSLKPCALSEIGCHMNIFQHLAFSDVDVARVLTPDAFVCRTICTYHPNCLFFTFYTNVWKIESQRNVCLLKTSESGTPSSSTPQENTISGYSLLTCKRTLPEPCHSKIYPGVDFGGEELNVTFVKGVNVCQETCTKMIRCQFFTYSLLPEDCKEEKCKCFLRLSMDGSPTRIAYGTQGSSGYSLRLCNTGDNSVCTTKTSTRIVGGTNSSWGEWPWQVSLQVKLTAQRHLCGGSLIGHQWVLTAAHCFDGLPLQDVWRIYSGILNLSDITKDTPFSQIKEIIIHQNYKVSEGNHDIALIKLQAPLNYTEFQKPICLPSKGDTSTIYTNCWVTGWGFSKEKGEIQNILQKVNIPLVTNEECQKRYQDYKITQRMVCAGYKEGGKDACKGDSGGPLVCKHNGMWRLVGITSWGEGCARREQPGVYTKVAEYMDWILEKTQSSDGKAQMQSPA
Chain of Plasmin (P00747 581-810 limits assumed, species assumed): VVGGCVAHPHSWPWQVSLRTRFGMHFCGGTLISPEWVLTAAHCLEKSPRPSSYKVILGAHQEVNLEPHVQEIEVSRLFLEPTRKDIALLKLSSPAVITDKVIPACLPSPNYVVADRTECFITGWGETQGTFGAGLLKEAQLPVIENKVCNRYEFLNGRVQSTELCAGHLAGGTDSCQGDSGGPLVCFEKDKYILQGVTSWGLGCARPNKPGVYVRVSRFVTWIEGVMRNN
Chain of Plasmin (P00747 97-580 partner limits assumed, species assumed): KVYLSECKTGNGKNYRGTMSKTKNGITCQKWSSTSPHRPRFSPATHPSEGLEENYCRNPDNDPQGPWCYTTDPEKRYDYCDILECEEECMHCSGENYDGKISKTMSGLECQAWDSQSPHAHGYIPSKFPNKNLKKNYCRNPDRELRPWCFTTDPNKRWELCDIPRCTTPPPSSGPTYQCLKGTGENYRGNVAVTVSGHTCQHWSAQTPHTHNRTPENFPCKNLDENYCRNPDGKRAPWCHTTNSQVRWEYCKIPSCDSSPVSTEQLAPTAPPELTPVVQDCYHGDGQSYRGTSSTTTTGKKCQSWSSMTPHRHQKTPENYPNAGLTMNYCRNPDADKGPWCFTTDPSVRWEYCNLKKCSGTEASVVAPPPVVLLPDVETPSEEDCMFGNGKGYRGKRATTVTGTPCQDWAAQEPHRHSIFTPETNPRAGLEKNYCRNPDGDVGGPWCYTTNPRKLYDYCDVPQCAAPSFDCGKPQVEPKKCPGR
Chain of Factor Xa (P00742 235-488 limits assumed): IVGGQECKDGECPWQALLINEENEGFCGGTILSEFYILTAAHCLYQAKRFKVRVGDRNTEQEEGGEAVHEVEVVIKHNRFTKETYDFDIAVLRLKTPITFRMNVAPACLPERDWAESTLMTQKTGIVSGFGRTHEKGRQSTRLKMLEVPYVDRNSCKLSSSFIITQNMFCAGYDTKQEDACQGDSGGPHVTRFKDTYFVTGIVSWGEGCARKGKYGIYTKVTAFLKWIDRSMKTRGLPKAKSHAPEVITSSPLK
Chain of Factor Xa (P00742 41-179 partner limits assumed): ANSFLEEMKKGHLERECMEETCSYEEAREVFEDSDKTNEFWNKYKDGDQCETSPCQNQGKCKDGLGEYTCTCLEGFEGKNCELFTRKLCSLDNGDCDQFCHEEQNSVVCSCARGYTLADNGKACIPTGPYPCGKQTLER

IC50 (C1s) | IC50 (Thrombin) | IC50 (Factor Xa) | IC50 (kallikrein) | IC50 (factor XIIa) | IC50 (Plasmin) | IC50 (Factor D) | Compound
37 nM | 57 nM | 60 nM | 5.4 nM | 20 nM | 42 nM | 3650 nM | N=C(N)c1cc2ccc(OC(=O)c3ccco3)cc2o1 [Example 1, 2-Amidino-6-benzofuranyl 2-furanylcarboxylate]
56 nM | 65 nM | 4 nM | 5.4 nM | 20.2 nM | 23 nM | 460 nM | N=C(N)c1cc2cc(OC(=O)c3ccco3)ccc2o1 [Example 3]
11 nM | 39 nM | 23 nM | 1.3 nM | 901 nM | 11 nM | 500 nM | N=C(N)c1cc2ccc(OC(=O)c3ccccc3)cc2s1 [Example 7]
1.7 nM | 44 nM | 1 nM | 1.4 nM | 5.4 nM | 1 nM | 147 nM | N=C(N)c1cc2ccc(OC(=O)c3ccco3)cc2s1 [Example 8]
1.6 nM | 42 nM | 3.2 nM | 1.4 nM | 6 nM | 4.1 nM | 96 nM | N=C(N)c1cc2ccc(OC(=O)c3cccs3)cc2s1 [Example 9]
4.1 nM | 47 nM | 1 nM | 1.6 nM | 17.4 nM | 1 nM | 177 nM | N=C(N)c1cc2ccc(OC(=O)c3ccoc3)cc2s1 [Example 10]
4.3 nM | 39 nM | 6 nM | 1.6 nM | 12.7 nM | 9 nM | 175 nM | N=C(N)c1cc2ccc(OC(=O)c3ccsc3)cc2s1 [Example 11]
3 nM | 25 nM | 1 nM | 4 nM | 9 nM | 2 nM | 421 nM | N=C(N)c1nc2ccc(OC(=O)c3ccco3)cc2s1 [Example 13]
2.9 nM | 51 nM | 3.9 nM | 3.6 nM | 6.1 nM | 1.5 nM | 347 nM | N=C(N)C1=Cc2ccc(OC(=O)c3ccco3)cc2OC1 [Example 18, 3-amidino-7-(2H-1-benzopyran) 2-furancarboxylate methanesulfonate]
6 nM | 47 nM | 5 nM | 12 nM | 27 nM | 6 nM | 190 nM | CC/C=C/C(=O)Oc1ccc2cc(C(=N)N)sc2c1 [Example 20]

The next lines start with the compound.

Compound | IC50 (C1s) | IC50 (Thrombin) | IC50 (Factor Xa) | IC50 (kallikrein) | IC50 (factor XIIa) | IC50 (Plasmin) | IC50 (Factor D)
N=C(N)c1cc2ccc(OC(=O)c3cccs3)cc2o1 [Example 2] | 519 nM | 520 nM | 996 nM |  |  | 817 nM | 9110 nM
N=C(N)c1cc2cc(OC(=O)c3cccs3)ccc2o1 [Example 4] | 50 nM | 124 nM | 880 nM |  |  | 116 nM | 5590 nM
N=C(N)c1cc2cc(OC(=O)c3ccoc3)ccc2o1 [Example 5] | 76 nM | 104 nM | 1580 nM |  |  | 325 nM | 2850 nM
N=C(N)c1cc2cc(OC(=O)c3ccsc3)ccc2o1 [Example 6] | 122 nM | 361 nM | 500 nM |  |  | 546 nM | 10800 nM
N=C(N)c1nc2ccc(OC(=O)c3ccccc3)cc2s1 [Example 12] | 5.3 nM | 44 nM | 52 nM | 3.8 nM | 13 nM | 37 nM | 564 nM
N=C(N)c1nc2ccc(OC(=O)c3cccs3)cc2s1 [Example 14] | 2 nM | 18 nM | 12 nM | 2 nM | 5 nM | 6 nM | 250 nM
N=C(N)c1nc2ccc(OC(=O)c3ccoc3)cc2s1 [Example 15] | 2 nM | 15 nM | 22 nM | 5 nM | 6 nM | 15 nM | 286 nM
N=C(N)c1nc2ccc(OC(=O)c3ccsc3)cc2s1 [Example 16] | 2.5 nM | 42 nM | 31 nM | 2.6 nM | 10 nM | 21 nM | 205 nM
N=C(N)c1nc2ccc(OC(=O)c3ccc(Cl)s3)cc2s1 [Example 17] | 2 nM | 48 nM | 2 nM |  |  | 3 nM | 260 nM
N=C(N)C1COc2cc(OC(=O)c3ccco3)ccc2C1 (stereo not shown) [Example 19] | 750 nM |  |  | 661 nM |  |  | 50000 nM
N=C(N)c1ccc2cc(OC(=O)c3ccccc3)ccc2c1 [reference, reference compound] | 40 nM | 3110 nM | 7170 nM |  |  |  | 4000 nM
